Laboratory results reported in PubChem BioAssay AID2060909 (Molecular Pharmacology Branch, DTP, NCI, 2025).
Values joined by “and” are separate entries in the source; they are usually repeats but may differ in a detail not shown here. Equal values may be shown once.

Tested on: 362531-283-R-J2-PDC complex spheroid viability
Test: Anticancer human tumor 362531-283-R-J2-PDC patient-derived colon adenocarcinoma cell line growth inhibition [RAS]
Conditions: for viability, T/C: stronger effect = lower value
In short: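 Tumour cells grown as complex spheroids with HUVEC endothelial cells and mesenchymal stem cells, treated with RAS pathway inhibitor combinations. Each agent spans half-log steps from near clinical Cmax, or 10 microM where Cmax is unknown.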
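Also: spheroids exposed to the agents for 7 days before readout.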
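For viability, T/C in this document: luminescence viability as percent of DMSO vehicle control wells.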

Question: With O=C(c1ccc(F)c(F)c1Nc1ccc(I)cc1F)N1CC(O)([C@@H]2CCCCN2)C1 + C#Cc1c(F)ccc2cc(O)cc(-c3ncc4c(N5CC6CCC(C5)N6)nc(OCC56CCCN5CC(F)C6)nc4c3F)c12 as the molecule, how does the IC50 (curve of first compound, second compound 0.0316 µM) read?
Answer: Its IC50 is 0.413 µM.

Question: And the IC50 (curve of first compound, second compound 0.1 µM)?
Answer: Its IC50 is 0.35 µM.

Question: What about the IC50 (curve of first compound, second compound 0.316 µM) of the same molecule?
Answer: The IC50 was 0.35 µM.

Question: What about the IC50 (curve of first compound, second compound 1 µM) of the same molecule?
Answer: The IC50 was 0.181 µM.

Question: And the IC50 (curve of first compound, second compound 3.16 µM)?
Answer: The IC50 was 0.0372 µM.

Question: And the IC50 (curve of first compound, second compound 10 µM)?
Answer: The IC50 was less than 0.00316 µM.

Question: What about the viability, T/C (second compound 0.0316 µM, first compound 0.00316 µM) of the same molecule?
Answer: Its viability, T/C is 97.9%.

Question: And the viability, T/C (second compound 0.0316 µM, first compound 0.01 µM)?
Answer: The viability, T/C was 101%.

Question: What about the viability, T/C (second compound 0.0316 µM, first compound 0.0316 µM) of the same molecule?
Answer: Its viability, T/C is 101%.

Question: And the viability, T/C (second compound 0.0316 µM, first compound 0.1 µM)?
Answer: Its viability, T/C is 88.1%.

Question: What about the viability, T/C (second compound 0.0316 µM, first compound 0.316 µM) of the same molecule?
Answer: Its viability, T/C is 62.9%.

Question: What about the viability, T/C (second compound 0.0316 µM, first compound 1 µM) of the same molecule?
Answer: The viability, T/C was 8.48%.

Question: And the viability, T/C (second compound 0.1 µM, first compound 0.00316 µM)?
Answer: The viability, T/C was 97.6%.

Question: What about the viability, T/C (second compound 0.1 µM, first compound 0.01 µM) of the same molecule?
Answer: Its viability, T/C is 98.4%.

Question: And the viability, T/C (second compound 0.1 µM, first compound 0.0316 µM)?
Answer: The viability, T/C was 95.5%.

Question: What about the viability, T/C (second compound 0.1 µM, first compound 0.1 µM) of the same molecule?
Answer: The viability, T/C was 72.1%.

Question: What about the viability, T/C (second compound 0.1 µM, first compound 0.316 µM) of the same molecule?
Answer: Its viability, T/C is 57.6%.

Question: What about the viability, T/C (second compound 0.1 µM, first compound 1 µM) of the same molecule?
Answer: The viability, T/C was 4.9%.

Question: And the viability, T/C (second compound 0.316 µM, first compound 0.00316 µM)?
Answer: Its viability, T/C is 90.1%.

Question: What about the viability, T/C (second compound 0.316 µM, first compound 0.01 µM) of the same molecule?
Answer: Its viability, T/C is 88.1%.

Question: And the viability, T/C (second compound 0.316 µM, first compound 0.0316 µM)?
Answer: Its viability, T/C is 78.1%.

Question: And the viability, T/C (second compound 0.316 µM, first compound 0.1 µM)?
Answer: The viability, T/C was 66.3%.

Question: What about the viability, T/C (second compound 0.316 µM, first compound 0.316 µM) of the same molecule?
Answer: Its viability, T/C is 61.3%.

Question: What about the viability, T/C (second compound 0.316 µM, first compound 1 µM) of the same molecule?
Answer: The viability, T/C was 3.76%.

Question: What about the viability, T/C (second compound 1 µM, first compound 0.00316 µM) of the same molecule?
Answer: Its viability, T/C is 82.6%.

Question: And the viability, T/C (second compound 1 µM, first compound 0.01 µM)?
Answer: Its viability, T/C is 78.6%.

Question: What about the viability, T/C (second compound 1 µM, first compound 0.0316 µM) of the same molecule?
Answer: The viability, T/C was 78.2%.

Question: And the viability, T/C (second compound 1 µM, first compound 0.1 µM)?
Answer: The viability, T/C was 79.1%.

Question: And the viability, T/C (second compound 1 µM, first compound 0.316 µM)?
Answer: The viability, T/C was 22.9%.

Question: What about the viability, T/C (second compound 1 µM, first compound 1 µM) of the same molecule?
Answer: Its viability, T/C is 3.27%.

Question: What about the viability, T/C (second compound 3.16 µM, first compound 0.00316 µM) of the same molecule?
Answer: Its viability, T/C is 65.4%.

Question: What about the viability, T/C (second compound 3.16 µM, first compound 0.01 µM) of the same molecule?
Answer: The viability, T/C was 60.5%.

Question: And the viability, T/C (second compound 3.16 µM, first compound 0.0316 µM)?
Answer: The viability, T/C was 56.5%.

Question: And the viability, T/C (second compound 3.16 µM, first compound 0.1 µM)?
Answer: Its viability, T/C is 10.6%.

Question: What about the viability, T/C (second compound 3.16 µM, first compound 0.316 µM) of the same molecule?
Answer: Its viability, T/C is 9.05%.

Question: And the viability, T/C (second compound 3.16 µM, first compound 1 µM)?
Answer: The viability, T/C was 1.7%.

Question: What about the viability, T/C (second compound 10 µM, first compound 0.00316 µM) of the same molecule?
Answer: The viability, T/C was 28%.

Question: What about the viability, T/C (second compound 10 µM, first compound 0.01 µM) of the same molecule?
Answer: Its viability, T/C is 31.1%.

Question: What about the viability, T/C (second compound 10 µM, first compound 0.0316 µM) of the same molecule?
Answer: The viability, T/C was 13.9%.

Question: What about the viability, T/C (second compound 10 µM, first compound 0.1 µM) of the same molecule?
Answer: Its viability, T/C is 9.85%.

Question: What about the viability, T/C (second compound 10 µM, first compound 0.316 µM) of the same molecule?
Answer: Its viability, T/C is 6.01%.

Question: What about the viability, T/C (second compound 10 µM, first compound 1 µM) of the same molecule?
Answer: Its viability, T/C is 1.71%.

Question: CC1(O)CCCC1n1c(=O)c(C(F)F)cc2cnc(NC3CCN(S(C)(=O)=O)CC3)nc21 (stereo unspecified) + CCn1c(-c2cc(N3CCN(C)CC3)cnc2C(C)OC)c2c3cc(ccc31)-c1csc(n1)CC(NC(=O)C1CC1C)C(=O)N1CCCC(N1)C(=O)OCC(C)(C)C2 was tested. Which IC50 (curve of first compound, second compound 0.000949 µM) did it give?
Answer: The IC50 was 5.44 µM.

Question: And the IC50 (curve of first compound, second compound 0.003 µM)?
Answer: The IC50 was 6.11 µM.

Question: What about the IC50 (curve of first compound, second compound 0.00949 µM) of the same molecule?
Answer: The IC50 was 8.98 µM.

Question: What about the IC50 (curve of first compound, second compound 0.03 µM) of the same molecule?
Answer: The IC50 was 5.9 µM.

Question: What about the IC50 (curve of first compound, second compound 0.0949 µM) of the same molecule?
Answer: The IC50 was greater than 10 µM.

Question: What about the IC50 (curve of first compound, second compound 0.3 µM) of the same molecule?
Answer: Its IC50 is less than 0.0316 µM.

Question: What about the viability, T/C (second compound 0.000949 µM, first compound 0.0316 µM) of the same molecule?
Answer: Its viability, T/C is 97.7%.

Question: What about the viability, T/C (second compound 0.000949 µM, first compound 0.1 µM) of the same molecule?
Answer: The viability, T/C was 97.5%.

Question: What about the viability, T/C (second compound 0.000949 µM, first compound 0.316 µM) of the same molecule?
Answer: Its viability, T/C is 98%.

Question: What about the viability, T/C (second compound 0.000949 µM, first compound 1 µM) of the same molecule?
Answer: Its viability, T/C is 79.5%.

Question: And the viability, T/C (second compound 0.000949 µM, first compound 3.16 µM)?
Answer: Its viability, T/C is 57.6%.

Question: What about the viability, T/C (second compound 0.000949 µM, first compound 10 µM) of the same molecule?
Answer: The viability, T/C was 42.2%.

Question: And the viability, T/C (second compound 0.003 µM, first compound 0.0316 µM)?
Answer: Its viability, T/C is 109%.

Question: And the viability, T/C (second compound 0.003 µM, first compound 0.1 µM)?
Answer: The viability, T/C was 112%.

Question: What about the viability, T/C (second compound 0.003 µM, first compound 0.316 µM) of the same molecule?
Answer: Its viability, T/C is 97.4%.

Question: What about the viability, T/C (second compound 0.003 µM, first compound 1 µM) of the same molecule?
Answer: Its viability, T/C is 76.9%.

Question: And the viability, T/C (second compound 0.003 µM, first compound 3.16 µM)?
Answer: The viability, T/C was 61.5%.

Question: What about the viability, T/C (second compound 0.003 µM, first compound 10 µM) of the same molecule?
Answer: The viability, T/C was 42.4%.

Question: And the viability, T/C (second compound 0.00949 µM, first compound 0.0316 µM)?
Answer: Its viability, T/C is 94.6%.

Question: What about the viability, T/C (second compound 0.00949 µM, first compound 0.1 µM) of the same molecule?
Answer: Its viability, T/C is 111%.

Question: And the viability, T/C (second compound 0.00949 µM, first compound 0.316 µM)?
Answer: Its viability, T/C is 108%.

Question: What about the viability, T/C (second compound 0.00949 µM, first compound 1 µM) of the same molecule?
Answer: The viability, T/C was 83.5%.

Question: What about the viability, T/C (second compound 0.00949 µM, first compound 3.16 µM) of the same molecule?
Answer: The viability, T/C was 65.5%.

Question: And the viability, T/C (second compound 0.00949 µM, first compound 10 µM)?
Answer: The viability, T/C was 47.5%.

Question: And the viability, T/C (second compound 0.03 µM, first compound 0.0316 µM)?
Answer: The viability, T/C was 99.2%.

Question: What about the viability, T/C (second compound 0.03 µM, first compound 0.1 µM) of the same molecule?
Answer: The viability, T/C was 99.1%.

Question: What about the viability, T/C (second compound 0.03 µM, first compound 0.316 µM) of the same molecule?
Answer: The viability, T/C was 89.4%.

Question: What about the viability, T/C (second compound 0.03 µM, first compound 1 µM) of the same molecule?
Answer: The viability, T/C was 87%.

Question: What about the viability, T/C (second compound 0.03 µM, first compound 3.16 µM) of the same molecule?
Answer: Its viability, T/C is 69.2%.

Question: What about the viability, T/C (second compound 0.03 µM, first compound 10 µM) of the same molecule?
Answer: Its viability, T/C is 33.9%.

Question: What about the viability, T/C (second compound 0.0949 µM, first compound 0.0316 µM) of the same molecule?
Answer: Its viability, T/C is 80.7%.

Question: What about the viability, T/C (second compound 0.0949 µM, first compound 0.1 µM) of the same molecule?
Answer: Its viability, T/C is 79.2%.

Question: And the viability, T/C (second compound 0.0949 µM, first compound 0.316 µM)?
Answer: The viability, T/C was 78.6%.

Question: What about the viability, T/C (second compound 0.0949 µM, first compound 1 µM) of the same molecule?
Answer: Its viability, T/C is 68.2%.

Question: What about the viability, T/C (second compound 0.0949 µM, first compound 3.16 µM) of the same molecule?
Answer: Its viability, T/C is 56.4%.

Question: What about the viability, T/C (second compound 0.0949 µM, first compound 10 µM) of the same molecule?
Answer: Its viability, T/C is 61%.

Question: What about the viability, T/C (second compound 0.3 µM, first compound 0.0316 µM) of the same molecule?
Answer: The viability, T/C was 37.4%.

Question: And the viability, T/C (second compound 0.3 µM, first compound 0.1 µM)?
Answer: The viability, T/C was 50.2%.

Question: What about the viability, T/C (second compound 0.3 µM, first compound 0.316 µM) of the same molecule?
Answer: The viability, T/C was 37.7%.

Question: And the viability, T/C (second compound 0.3 µM, first compound 1 µM)?
Answer: Its viability, T/C is 55.8%.

Question: What about the viability, T/C (second compound 0.3 µM, first compound 3.16 µM) of the same molecule?
Answer: The viability, T/C was 45.9%.

Question: What about the viability, T/C (second compound 0.3 µM, first compound 10 µM) of the same molecule?
Answer: Its viability, T/C is 7.05%.

Question: Which results are given for CCC(CC)c1cc(NC2CCC(N)C2)n2nccc2n1 (stereo unspecified)?
Answer: viability, T/C (compound 0.0316 µM): 106% [middle of 4 runs]; viability, T/C (compound 0.1 µM): 94% and 100% and 104% (2×); viability, T/C (compound 0.316 µM): 101% [middle of 4 runs]; viability, T/C (compound 1 µM): 94.1% [middle of 4 runs]; viability, T/C (compound 3.16 µM): 74.8% [middle of 4 runs]; viability, T/C (compound 10 µM): 3.99% [middle of 4 runs]; IC50 (curve of compound): 4.62 µM [middle of 4 runs]
